In US12441722B2, “Therapeutic agents and methods of treatment” (University of Florida Research Foundation, Incorporated, priority 2020, dated 2025):

System: MOLT-4
Experiment: Cell viability assay (tetrazolium-based MTS) in MOLT4 cells
Details: 48 h incubation
Experimental: Cancer cells from acute lymphoblastic leukemia (MOLT4) were incubated with increasing concentrations of compounds of Examples 1-9 for 48 h. Cell viability was measured by tetrazolium-based MTS assay. 5×10^4 to 1×10^5 suspension cells or 3×10^3 to 5×10^3 adherent cells were seeded and treated in 96-well plates for 48 h. The EC50 values of individual agents were calculated with GraphPad Prism.

[1] = MOLT4 acute lymphoblastic leukemia cells
[2] = Homo sapiens, MOLT-4, MOLT4 acute lymphoblastic leukemia cells

Structure (SMILES): Cc1ncsc1-c1ccc([C@H](C)NC(=O)[C@@H]2C[C@@H](O)CN2C(=O)[C@@H](NC(=O)CCCCCCS(=O)(=O)NC(=O)c2nc(N3CCc4cccc(C(=O)Nc5nc6ccccc6s5)c4C3)ccc2-c2cnn(CC34CC5CC(CC(C5)C3)C4)c2C)C(C)(C)C)cc1 [degrader #12, 2-(5-(1-(adamantan-1-ylmethyl)-5-methvl-1H-pyrazol-4-yl)-6-(((7-(((S)-1-((2S,4R)-4-hydroxy-2-(((S)-1-(4-(4-methylthiazol-5-yl)phenyl)ethyl)carbamoyl)pyrrolidin-1-yl)-3,3-dimethyl-1-oxobutan-2-yl)amino)-7-oxoheptyl)sulfonyl)carbamol)pyridin-2-yl)-N-(benzo[d]thiazol-2-yl)-1,2,3,4-tetrahydroisoquinoline-8-carboxamide]
- EC50 [1]: < 10 nM

Structure (SMILES): Cc1ncsc1-c1ccc([C@H](C)NC(=O)[C@@H]2C[C@@H](O)CN2C(=O)[C@@H](NC(=O)CCNC(=O)C23CC4CC(CC(Cn5ncc(-c6ccc(N7CCc8cccc(C(=O)Nc9nc%10ccccc%10s9)c8C7)nc6C(=O)O)c5C)(C4)C2)C3)C(C)(C)C)cc1 [degrader #41, 6-(8-(benzo[d]thiazol-2-ylcarbamoyl)-3,4-dihydroisoquinolin-2(1H)-yl)-3-(1-(((1S,3r)-3-((3-(((S)-1-((2S,4R)-4-hydroxy-2-(((S)-1-(4-(4-methylthiazol-5-yl)phenyl)ethyl)carbamoyl)pyrrolidin-1-yl)-3,3-dimethyl-1-oxobutan-2-yl)amino)-3-oxopropyl)carbamoyl)adamantan-1-yl)methyl)-5-methyl-1H-pyrazol-4-yl)picolinic acid]
- EC50 [1]: > 1000 nM

Structure (SMILES): Cc1ncsc1-c1ccc([C@H](C)NC(=O)[C@@H]2C[C@@H](O)CN2C(=O)[C@@H](NC(=O)CCCS(=O)(=O)NC(=O)c2nc(N3CCc4cccc(C(=O)Nc5nc6ccccc6s5)c4C3)ccc2-c2cnn(CC34CC5CC(CC(C5)C3)C4)c2C)C(C)(C)C)cc1 [degrader #9, 2-(5-(1-(adamantan-1-ylmethyl)-5-methyl-1H-pyrazol-4-yl)-6-(((4-(((S)-1-((2S,4R)-4-hydroxy-2-(((S)-1-(4-(4-methylthiazol-5-yl)phenyl)ethyl)carbamoyl)pyrrolidin-1-yl)-3,3-dimethyl-1-oxobutan-2-yl)amino)-4-oxobutyl)sulfonyl)carbamoyl)pyridin-2-yl)-N-(benzo[d]thiazol-2-yl)-1,2,3,4-tetrahydroisoquinoline-8-carboxamide]
- EC50 [2]: < 10 nM

Structure (SMILES): Cc1c(-c2ccc(N3CCc4cccc(C(=O)Nc5nc6ccccc6s5)c4C3)nc2C(=O)O)cnn1CC12CC3CC(C1)CC(C(=O)NCCCCCCCCCCCCNc1cccc4c1C(=O)N(C1CCC(=O)NC1=O)C4=O)(C3)C2 (stereo not drawn) [degrader #38, 6-(8-(benzo[d]thiazol-2-ylcarbamoyl)-3,4-dihydroisoquinolin-2(1H)-yl)-3-(1-(((1r,3r)-3-((12-((2-(2,6-dioxopiperidin-3-yl)-1,3-dioxoisoindolin-4-yl)amino)dodecyl)carbamoyl)adamantan-1-yl)methyl)-5-methyl-1H-pyrazol-4-yl)picolinic acid]
- EC50 [1]: 10 to 100 nM

Structure (SMILES): Cc1ncsc1-c1ccc([C@H](CC(=O)NCCCCCNC(=O)c2nc(N3CCc4cccc(C(=O)Nc5nc6ccccc6s5)c4C3)ccc2-c2cnn(CC34CC5CC(CC(C5)C3)C4)c2C)NC(=O)[C@@H]2C[C@@H](O)CN2C(=O)[C@@H](NC(=O)C2(C#N)CC2)C(C)(C)C)cc1 [degrader #23, 2-(5-(1-(adamantan-1-ylmethyl)-5-methyl-1H-pyrazol-4-yl)-6-((5-((S)-3-((2S,4R)-1-((S)-2-(1-cyanocyclopropane-1-carboxamido)-3,3-dimethylbutanoyl)-4-hydroxypyrrolidine-2-carboxamido)-3-(4-(4-methylthiazol-5-yl)phenyl)propanamido)pentyl)carbamoyl)pyridin-2-yl)-N-(benzo[d]thiazol-2-yl)-1,2,3,4-tetrahydroisoquinoline-8-carboxamide]
- EC50 [2]: 10 to 100 nM

Structure (SMILES): Cc1c(-c2ccc(N3CCc4cccc(C(=O)Nc5nc6ccccc6s5)c4C3)nc2C(=O)NCCOCCOCCOCCCc2cccc3c2CN(C2CCC(=O)NC2=O)C3=O)cnn1CC12CC3CC(CC(C3)C1)C2 (stereo not drawn) [degrader #32]
- EC50 [1]: < 10 nM
